Test results published in ChEMBL document CHEMBL3507680, “University of Dundee, Gates Library screen for HepG2 cell viability”.

Assay: Human HepG2 cell viability assay in 384 well format
Type: toxicity, cell-based
Design: dose 125 nL, time 70.5 hour; cytotoxicity at 70.5 h: concentration not given beside the values
Details: HepG2 cells, read-out: Inhibition

| Structure (SMILES) | cytotoxicity at 70.5 h |
| --- | --- |
| O=C(NCCc1ccncc1)[C@H]1CC[C@@H]2[C@@H](CCN2C2CCC2)O1 | -7.73% |
| CNC(=O)N1CC[C@@H]2CN(Cc3cccc(Cl)c3)S(=O)(=O)[C@@H]2CC1 | -4.42% |
| COCC(=O)N1CCC2(CC(C(=O)NCc3cccnc3)=NO2)C1 (stereo not given) | -5.23% |
| CCCS(=O)(=O)N1CCOC2(CCCN(c3ccc(C)nn3)C2)C1 (stereo not given) | -6.62% |
| CS(=O)(=O)N1CC[C@H]2O[C@@H](C(=O)NCc3ccco3)CC[C@H]21 | -12% |
| Cc1ccsc1CN1CC[C@H]2O[C@H](C(=O)N3CCCO3)CC[C@H]21 | -8.24% |
| O=C(c1cccc(F)c1)N1C[C@H]2CCCC(OCc3cccnc3)[C@H]2C1 (stereo not given in full) | -7.83% |
| Cc1noc(C)c1CN1CC[C@H]2OCC[C@@H](C(=O)N3CCCO3)[C@H]2C1 | -2.47% |
| CNC(=O)c1cc2c(nc1NCC1CC1)CCNCC2 | 4.29% |
| CCN(C)c1ncnc2c1CCN(C(=O)N1CCOCC1)CC2 | 6.06% |
| COc1ccc(S(=O)(=O)N2CCn3cnc(COCC4CC4)c3C2)cc1 | 10.3% |
| CN1C(=O)C(c2cccnc2)CC12CCN(C(=O)c1ccc[nH]1)CC2 (stereo not given) | 15.4% |
| CCOCc1ncn2c1CN(S(=O)(=O)c1ccc(OC)cc1)CC2 | -9.1% |
| COCc1ncn2c1CN(S(=O)(=O)c1ccc(C)cc1)CC2 | -0.994% |
| CCOCc1ncn2c1CN(S(=O)(=O)c1ccc(C)cc1)CC2 | 35.9% |
| Cc1cccc(CO[C@@H]2C[C@H]3CN(C(=O)c4cnccn4)CCN3C2)n1 | -8.15% |
| CC(C)(C)C(=O)N1C[C@@H]2COC[C@]2(c2nnc(C3CC3)o2)C1 | -8.33% |
| Cc1cnc(CNC(=O)[C@@H]2CC[C@@H]3[C@@H](CCN3Cc3ccco3)O2)cn1 | -11.9% |
| Cc1cc(C(=O)N2C[C@@H]3COC[C@]3(c3nnc(C)o3)C2)on1 | -11.2% |
| O=C(Nc1ccccc1)C1CN(Cc2cccs2)CC12CCOCC2 (stereo not given) | -6.1% |
| Cc1ccc(C(=O)N2CC[C@H]3O[C@@H](c4noc(C)n4)C[C@H]3C2)o1 | -8.48% |
| Cc1nc([C@H]2C[C@H]3CN(C(=O)c4ccoc4C)CC[C@@H]3O2)no1 | -7.31% |
| Cc1ccc(C(=O)N2CCc3ncnc(C)c3CC2)cc1F | 6.96% |
| Cc1ccc(N2CCCc3sc(C(=O)NCc4ccc(C)o4)nc32)nn1 | -6.21% |
| Cc1ncnc2c1CCN(C(=O)c1cccc(F)c1)CC2 | -5.99% |

| Structure (SMILES) | cytotoxicity at 70.5 h |
| --- | --- |
| Cc1noc(C)c1CN1CC2(CCN(C(=O)c3ccoc3C)C2)CC1=O (stereo not given) | -6.54% |
| O=C(c1ccccc1)N1CCC2(CC1)CC(Oc1ccccc1)CO2 (stereo not given) | -11.5% |
| Cc1ncnc2c1CCN(C(=O)c1ccnnc1)CC2 | -2.5% |
| Cn1nnc2c1C(COCC1CC1)CN(C(=O)Cc1ccccn1)C2 (stereo not given) | -2.19% |
| Fc1cnc(N2CCCC3(CCN(c4ncccn4)C3)C2)nc1 (stereo not given) | 13.7% |
| CN(c1ccccc1C(=O)O)S(=O)(=O)c1cccc2cccnc12 | -6.45% |
| Cc1cc(C(F)(F)F)nn1CCCNC(=O)C1CCCC1 | -1.45% |
| CN1CCN(C(=O)Cn2nc(C(F)(F)F)c(Br)c2C2CC2)CC1 | -10.9% |
| O=C(c1ccc(Cn2cc(Br)cn2)cc1)N1CCOCC1 | -7.67% |
| CN1CCN(C(=O)c2ccc(Cn3cc(Br)cn3)cc2)CC1 | -5.22% |
| CCCN1CCN(C(=O)c2ccc(Cn3cc(Br)cn3)cc2)CC1 | -7.06% |
| CCOCCCNC(=O)c1nn(CC)cc1Br | 25.1% |
| O=C(c1ccn(COc2ccc(F)cc2)n1)N1CCCC1 | -7.86% |
| CC(C(=O)Nc1ccccn1)n1ccc(C(F)(F)F)n1 (stereo not given) | -15.3% |
| Cc1cccc(NC(=O)C(C)Oc2ccc3c(c2)OCO3)n1 (stereo not given) | -3.5% |
| Cc1nn(CC(=O)N2CCN(c3ccc(F)cc3)CC2)c(C)c1Cl | 26.3% |
| COc1ccc(N2CCN(C(=O)Cn3nc(C)c(Cl)c3C)CC2)cc1 | 4.1% |
| CCS(=O)(=O)Nc1ccc2oc(C)c(C(C)=O)c2c1 | 28.3% |
| O=C(N1CCCC1)N1CCO[C@H]2[C@@H](OCc3cccnc3)CC[C@@H]21 | -8.11% |
| Cc1ccc2c(n1)N(CC1CC1)CCN(C(=O)NC1CC1)C2 | -7.71% |
| Cn1cc(C(=O)N[C@@H]2CN(Cc3ccc(F)cc3)[C@@H]3CCCO[C@@H]32)cn1 | -4.56% |
| CC(C)n1cnc2c1C(C(=O)NCCO)N(Cc1ccccc1)CC2 (stereo not given) | -8.21% |
| O=C(C1=CCCCC1)N1CCO[C@H]2[C@H](Oc3ccccn3)CC[C@@H]21 | -9.07% |
| c1ccc(-c2ncc3c(n2)C2(CCN(CC4CC4)C2)COC3)cc1 (stereo not given) | 15.2% |
| Cc1ccc(O[C@@H]2C[C@H]3CN(C(=O)c4cnccn4)CCN3C2)cc1 | -4.43% |

| Structure (SMILES) | cytotoxicity at 70.5 h |
| --- | --- |
| O=C(C1=CC2(CCN(CCO)CC2)c2ccccc21)N1CCCC1 | -4.5% |
| Cc1ccc(CN2CC(C(=O)Nc3ccccc3)C3(CCOCC3)C2)o1 (stereo not given) | -12.3% |
| Cn1cc(CN2CC(C(=O)Nc3ccccc3)C3(CCOCC3)C2)cn1 (stereo not given) | -9.91% |
| O=C(c1ccsc1)N1CCc2c(COCC3CC3)cncc2C1 | 18.9% |
| CCOCC(=O)N1Cc2nnn(C)c2C(COCc2ccccn2)C1 (stereo not given) | 9.65% |
| COCC1CN(S(=O)(=O)N(C)C)Cc2cnn(CC3CCCC3)c21 (stereo not given) | -5.7% |
| Cc1noc(C)c1CN1CCC2(COCc3cnc(N(C)C)nc32)C1 (stereo not given) | -3.18% |
| CCOCC1CN(Cc2csc(C)n2)Cc2nccn2C1 (stereo not given) | 3.86% |
| COc1cccc(CN2CCC3(COCc4cnc(N(C)C)nc43)C2)c1 (stereo not given) | 1.22% |
| Cc1cccc(CN2CC[C@H]3CO[C@H](CNC(=O)N(C)C)[C@H]3C2)c1 | -3.19% |
| CN(C)C(=O)N1CCC(c2nc3ccc(N4CCCC4)cn3n2)CC1 | -4.23% |
| Cc1nnc(N2C[C@H](OCC3CCCC3)[C@H]3OCCC[C@H]32)s1 | -5.71% |
| COc1ccc(CN2CC[C@H]3[C@H](CO[C@H]3CNC(=O)N(C)C)C2)cc1 | -0.91% |
| Cc1ccc(CN2CCOC3(COCCN(S(C)(=O)=O)C3)C2)s1 (stereo not given) | -6.35% |
| Cc1nnc(N2C[C@@H](OCC3CCCC3)[C@H]3OCCC[C@H]32)s1 | -5.21% |
| Cc1ccc(N2CCCc3sc(C(=O)NCCC#N)nc32)nn1 | -4.91% |
| CN(C)C(=O)NCc1cc(=O)n2c(n1)CN(Cc1ccoc1)CCC2 | 16.4% |
| CC(C)N(C)Cc1n[nH]c2c1CCN(C(=O)c1ccc[nH]1)C2 | 21% |
| c1cnc(N2CCOCC3(CCCN(CC4CCOCC4)C3)C2)nc1 (stereo not given) | -1.71% |
| CCN(C)c1ncnc2c1CCN(C(=O)c1ccccn1)CC2 | 17.4% |
| O=C(NCc1ccco1)[C@H]1CC[C@@H]2[C@@H](CCN2Cc2cccnc2)O1 | -5.95% |
| CS(=O)(=O)N1CCOCC2(CN(Cc3ccccn3)CCO2)C1 (stereo not given) | -5.98% |
| Cc1nc(CN2Cc3nccn3CC(CN3CCCC3)C2)cs1 (stereo not given) | -3.82% |
| Cc1nc(CN2Cc3nccn3CC(CN3CCOCC3)C2)cs1 (stereo not given) | -2.85% |
| Cc1nnc(N2CCO[C@H]3[C@@H](OCc4ccccn4)CC[C@@H]32)s1 | -2.28% |
